Data taken from PubChem BioAssay AID2816 (Southern Research Specialized Biocontainment Screening …, 2010).
The source made the active and inactive calls.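 The calls were made as follows: active = compound-induced drop in polymyxin IC50 in wild-type bacteria exceeding double the drop in a mutant lacking PhoP; inactive = the rest.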

Assays:
[1] = polymyxin IC50 shift, WT versus phoP- Typhimurium – Salmonella typhimurium, WT and phoP- strains, set 2, mechanism study for PhoP regulon inhibitor project (AID 2816); details: S. Typhimurium polymyxin IC50 shift, OD600, 24 h, at 150 µM
[2] = system: S. Typhimurium polymyxin IC50 shift, OD600, 24 h; assay: as above
[3] = measured here: phoP- strain counter-screen shift
[4] = measured here: wild-type strain IC50 shift, stronger effect = higher value
[5] = WT polymyxin IC50 at 150 uM, stronger effect = lower value

| SMILES | polymyxin IC50 shift difference WT - phoP- ([1]; stronger effect = higher value) | polymyxin IC50 shift [1, 3] | polymyxin IC50 shift [1, 4] | polymyxin IC50 [2, 5] [µM] | polymyxin IC50 ([2]; phoP- polymyxin IC50 at 150 uM) [µM] | IC50 [2] [µM] |
| --- | --- | --- | --- | --- | --- | --- |
| CCn1cc(C(=O)O)c(=O)c2cc(F)c(N3CCN(C(=S)Nc4ccccc4C(F)(F)F)CC3)cc21 | -3.38 (inactive) | 3.42 | 0.032 | 2.59 | 2.95 | – |
| COc1ccc(CNC(=S)Nc2ccncc2)cc1 | – | 1.46 | 10.1 | – | 4.42 | 75 |
| COc1cccc(C2Sc3ccccc3NC3=C2C(=O)c2ccccc23)c1 (stereo not drawn) | -1.75 (inactive) | 5.35 | 3.6 | 2.11 | – | – |
| O=C1C2=C(Nc3ccccc3SC2c2ccsc2)c2ccccc21 (stereo not drawn) | 2.14 (inactive) | -0.359 | 1.78 | 2.67 | 3 | – |
| O=C(Nc1ccc(Br)cc1)N1CCCN(Cc2ccccc2F)C1 | -2.51 (inactive) | 1.55 | -0.956 | 4.82 | 2.62 | – |
| O=C1C2=C(Nc3ccccc3SC2c2ccc(I)cc2)c2ccccc21 (stereo not drawn) | 1.63 (inactive) | 1.03 | 2.66 | 2.47 | 2.89 | – |
